Experimental data taken from patent US20240383910A1, “SMALL MOLECULE BTK DEGRADERS AND METHODS OF USE THEREOF” (Baylor College of Medicine, priority 2023, published 2024).

Key:
IKZF3 = molecular target: T1, IKZF3 (Homo sapiens, UniProt Q96SW2+Q9UKT9); test: TMT-based quantitative proteomics in Mino cells, IKZF3; assay type: cell-based; details: 200 nM, 4 h
T1 construct: host or cells: Mino
Procedure: (§1) Panel a. […] Panel b. […] Panel c. […] Panel d-e. […] Panel g.
(§2) Two million of Mino cells were treated with DMSO or 200 nM of PS-2 for 4 hours in biological triplicates and cells were harvested by centrifugation (200×g, 4° C., 5 min). Lysis buffer (100 mM Triethylammonium bicarbonate (TEAB, Thermo Fisher Scientific, Cat. No. 90114), 2% SDS) was added to the cell pellets and homogenized with a microtip sonicator (Branson) to achieve a cell lysate with a protein concentration of ˜2 mg mL^−1. Protein concentration was determined using BCA assay (Pierce, Cat. No. 23225) and normalized to 1 mg mL^−1. One hundred μg of protein for each sample were reduced and alkylated with 10 mM Tris(2-carboxyethyl) phosphine hydrochloride (TCEP, Sigma, Cat. No. C4706) and 17 mM iodoacetamide (IAA, Sigma, Cat. No. 16125-5G), followed by digestion with trypsin (1:20, enzyme: protein, Thermo Fisher Scientific, Cat. No. 90058) for 16 h shaking at 37° C. […]
(§3) Next, tandem mass tagging (TMT)-based quantitative proteomic profiling was performed to evaluate the degradation specificity of PS-2. […] Quantitative proteomics employing TMT chemical labeling coupled with LC/MS/MS enabled the detection of >2,500 unique proteins without fractionation (FIG. 4f). […]

His-BTK = molecular target: T2, His-BTK (Homo sapiens, UniProt Q06187); test: TR-FRET competition binding assay with BTK-BODIPY tracer; details: TRFRET assay, up to 100 μM
T2 construct: purchased SignalChem B10-10H-10
T2 sequence (Q06187 whole entry): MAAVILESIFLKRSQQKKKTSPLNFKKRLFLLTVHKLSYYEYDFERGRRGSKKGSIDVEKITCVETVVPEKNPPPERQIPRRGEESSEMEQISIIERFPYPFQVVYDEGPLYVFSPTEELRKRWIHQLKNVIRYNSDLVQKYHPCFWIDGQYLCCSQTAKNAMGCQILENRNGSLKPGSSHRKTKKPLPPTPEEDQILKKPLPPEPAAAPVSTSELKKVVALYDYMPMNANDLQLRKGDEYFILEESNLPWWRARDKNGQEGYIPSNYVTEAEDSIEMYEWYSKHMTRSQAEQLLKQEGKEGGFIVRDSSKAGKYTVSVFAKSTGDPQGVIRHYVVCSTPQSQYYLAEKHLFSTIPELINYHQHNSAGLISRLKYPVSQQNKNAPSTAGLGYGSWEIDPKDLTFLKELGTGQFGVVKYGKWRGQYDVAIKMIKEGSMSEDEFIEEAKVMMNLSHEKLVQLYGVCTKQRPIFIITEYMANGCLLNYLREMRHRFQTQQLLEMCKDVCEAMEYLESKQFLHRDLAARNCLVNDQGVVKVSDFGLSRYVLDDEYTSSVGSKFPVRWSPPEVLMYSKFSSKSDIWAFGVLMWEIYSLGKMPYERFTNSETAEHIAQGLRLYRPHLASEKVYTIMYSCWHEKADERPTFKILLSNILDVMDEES
Procedure: Panels a-b. […] Panel c. […] Panel d. […] Panel e. […] Panel f.
Time-resolved fluorescence resonance energy transfer (TR-FRET) assay was carried out to evaluate the binding of indicated compounds and BTK by competition with a BODIPY-FL labeled BTK tracer (See FIG. 1, BTK TR-FRET tracer). The assay was performed in 20 μL assay buffer (50 mM Tris, pH7.5, 0.1% Triton X-100, 0.01% BSA, and 1 mM DTT) with 0.3 nM Tb-anti-His (Cisbio, Cat. No. 61HI2TLA), 2 nM His-BTK (SignalChem, Cat. No. […] Unless specified otherwise, all assays were performed in triplicates. The assay mixtures were incubated at room temperature in the dark for 120 min, unless specified otherwise, and the signals were collected using a BioTek Synergy H1 microplate reader to measure the fluorescence emission ratio ([…]) of each well, using a 340-nm excitation filter, a 100-μs delay, and a 200-μs integration time. Raw data from the plate reader were used directly for analysis. The curve-fitting software GraphPad Prism 9 was used to generate graphs and curves and to determine IC50 values.
To measure the binding affinities between PROTACs and BTK, a time-resolved fluorescence resonance energy transfer (TR-FRET) competition binding assay was developed. A BTK tracer was synthesized by conjugating an ibrutinib-based reversible noncovalent binder with the BODIPY-FL dye (FIG. 1). […] In the presence of the BTK tracer, competition assays were performed to measure the binding affinities between BTK and its inhibitors and PROTACs. […] The very weak BTK binding affinities for PS-RC-1, PS-RC-2, PS-RC-3 and PS-RC-4 explain their minimal BTK degradation effects in cells and further support that the observed growth inhibitory effect of PS-RC-1 in Mino cells is unrelated to the BTK pathway.

IKZF1 [1] = molecular target: T3, IKZF1 (Homo sapiens, UniProt Q13422+Q96SW2); test: Western blotting for IKZF1 in Mino cells; assay type: cell-based; details: 24 h, Western blot, read-out: IKZF1-WB Endpoint DC50
T3 construct: host or cells: Mino
T3 sequence (Q13422 whole entry): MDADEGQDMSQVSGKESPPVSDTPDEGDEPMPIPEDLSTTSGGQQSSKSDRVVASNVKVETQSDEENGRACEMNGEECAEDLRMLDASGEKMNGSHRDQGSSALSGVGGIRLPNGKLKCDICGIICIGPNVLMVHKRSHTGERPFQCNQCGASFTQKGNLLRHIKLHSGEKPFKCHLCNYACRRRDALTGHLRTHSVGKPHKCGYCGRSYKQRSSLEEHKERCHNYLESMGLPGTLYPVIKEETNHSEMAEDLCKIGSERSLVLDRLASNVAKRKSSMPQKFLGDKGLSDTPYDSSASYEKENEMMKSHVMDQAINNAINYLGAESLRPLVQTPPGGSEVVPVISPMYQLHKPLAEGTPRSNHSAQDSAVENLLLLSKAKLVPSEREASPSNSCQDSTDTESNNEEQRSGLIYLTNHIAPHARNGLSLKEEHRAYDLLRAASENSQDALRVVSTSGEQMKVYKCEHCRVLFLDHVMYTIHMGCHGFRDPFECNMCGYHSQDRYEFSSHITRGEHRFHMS
T3 sequence (Q96SW2 whole entry): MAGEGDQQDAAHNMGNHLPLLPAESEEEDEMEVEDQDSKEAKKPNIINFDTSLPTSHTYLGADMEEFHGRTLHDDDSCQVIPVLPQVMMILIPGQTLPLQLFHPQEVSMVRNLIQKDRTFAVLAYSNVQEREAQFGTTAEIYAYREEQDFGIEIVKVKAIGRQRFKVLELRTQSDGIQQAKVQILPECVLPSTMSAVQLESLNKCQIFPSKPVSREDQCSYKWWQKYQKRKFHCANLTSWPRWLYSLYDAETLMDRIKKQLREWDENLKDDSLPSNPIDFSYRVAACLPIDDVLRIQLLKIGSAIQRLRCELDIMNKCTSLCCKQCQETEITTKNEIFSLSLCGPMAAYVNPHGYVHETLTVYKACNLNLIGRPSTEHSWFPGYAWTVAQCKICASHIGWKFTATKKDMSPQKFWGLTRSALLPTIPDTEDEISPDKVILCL
T3 sequence (Q16531 whole entry partner): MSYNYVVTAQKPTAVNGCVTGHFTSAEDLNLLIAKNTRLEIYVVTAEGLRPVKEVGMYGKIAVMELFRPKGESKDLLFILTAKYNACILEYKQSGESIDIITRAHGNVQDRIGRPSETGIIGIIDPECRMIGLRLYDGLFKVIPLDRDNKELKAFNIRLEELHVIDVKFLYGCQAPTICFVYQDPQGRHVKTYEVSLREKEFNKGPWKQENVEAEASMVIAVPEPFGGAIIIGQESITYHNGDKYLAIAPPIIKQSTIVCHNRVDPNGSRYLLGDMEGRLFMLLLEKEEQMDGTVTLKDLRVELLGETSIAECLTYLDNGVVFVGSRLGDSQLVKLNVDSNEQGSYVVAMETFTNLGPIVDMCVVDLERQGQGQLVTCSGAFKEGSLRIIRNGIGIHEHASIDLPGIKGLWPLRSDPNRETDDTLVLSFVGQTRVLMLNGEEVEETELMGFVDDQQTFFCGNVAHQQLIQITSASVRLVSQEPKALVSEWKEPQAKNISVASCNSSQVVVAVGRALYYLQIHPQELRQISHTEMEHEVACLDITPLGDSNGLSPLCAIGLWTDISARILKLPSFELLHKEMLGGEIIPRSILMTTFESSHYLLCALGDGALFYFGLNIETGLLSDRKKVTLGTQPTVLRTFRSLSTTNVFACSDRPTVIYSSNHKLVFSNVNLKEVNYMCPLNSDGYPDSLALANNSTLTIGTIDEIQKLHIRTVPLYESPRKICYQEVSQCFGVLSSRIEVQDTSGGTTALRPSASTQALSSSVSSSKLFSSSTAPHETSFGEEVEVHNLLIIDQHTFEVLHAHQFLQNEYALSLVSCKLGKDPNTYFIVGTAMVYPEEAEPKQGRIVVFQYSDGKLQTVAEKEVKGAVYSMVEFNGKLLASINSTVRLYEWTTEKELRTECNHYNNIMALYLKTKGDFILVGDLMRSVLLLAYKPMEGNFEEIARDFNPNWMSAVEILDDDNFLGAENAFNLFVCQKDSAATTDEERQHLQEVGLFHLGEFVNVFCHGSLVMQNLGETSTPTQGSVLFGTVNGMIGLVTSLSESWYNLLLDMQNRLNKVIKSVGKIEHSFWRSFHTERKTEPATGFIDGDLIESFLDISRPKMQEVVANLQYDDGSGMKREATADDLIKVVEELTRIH
Procedure: as §1
After treatment, whole cell lysates for immunoblotting were prepared by pelleting Mino cells at 4° C. and 200×g for 5 minutes. […] Imaging was performed using the ECL Prime chemiluminescent Western blot detection reagents (Kindle Biosciences, Cat. No. R1100) by visualization of the blots with an Imager (Kindle Biosciences, Cat. No. D1001). All Western blots were subsequently processed and quantified with Imager software ImageJ and protein level was normalized to the B-actin loading controls.

BTK [2] = molecular target: T4, BTK (Mus musculus, UniProt P35991); test: Western blotting for BTK in A20 cells; assay type: cell-based; details: A20 cells, 40, 200 and 1000 nM, 24 h, Western blot
T4 construct: host or cells: A20
T4 sequence (P35991 whole entry): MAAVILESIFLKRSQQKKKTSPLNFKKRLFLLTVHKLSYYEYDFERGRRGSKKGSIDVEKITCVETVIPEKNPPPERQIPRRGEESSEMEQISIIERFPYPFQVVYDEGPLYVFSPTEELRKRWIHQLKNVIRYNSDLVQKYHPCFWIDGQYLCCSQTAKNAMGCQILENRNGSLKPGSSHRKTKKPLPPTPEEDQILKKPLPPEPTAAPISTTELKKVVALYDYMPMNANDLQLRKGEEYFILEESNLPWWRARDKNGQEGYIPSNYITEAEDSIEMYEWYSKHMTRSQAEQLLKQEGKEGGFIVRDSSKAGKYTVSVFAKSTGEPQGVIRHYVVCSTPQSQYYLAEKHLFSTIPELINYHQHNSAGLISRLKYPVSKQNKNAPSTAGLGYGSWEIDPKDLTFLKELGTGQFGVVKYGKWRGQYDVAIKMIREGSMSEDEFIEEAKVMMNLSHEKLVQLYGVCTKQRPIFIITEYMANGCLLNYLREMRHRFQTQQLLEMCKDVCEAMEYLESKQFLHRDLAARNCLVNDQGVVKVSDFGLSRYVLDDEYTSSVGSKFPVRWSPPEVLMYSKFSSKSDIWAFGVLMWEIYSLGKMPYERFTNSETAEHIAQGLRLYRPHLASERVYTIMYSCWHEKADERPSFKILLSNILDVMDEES
Procedure: (§4) CC-220 is a IKZF1/3 degrader developed by Celgene and used for comparison.
(§5) In contrast, PS-3, whose warhead is further reduced compared with PS-2, loses its ability to function as either a BTK degrader or a potent IKZF1/3 molecular glue. To confirm this observation, BTK degradation induced by PS-1, PS-2, and PS-3 was tested in both a human B lymphocyte cell line Ramos and mouse BALB/c B cell lymphoma line A20, with DD-03-171 from the Gray group as a positive control (FIG. 5).

BTK [3] = molecular target: T5, BTK (Homo sapiens, UniProt Q06187); test: BTK ligand competition assay in Ramos cells (Western blotting for BTK); assay type: cell-based; parameters: host or cells: Ramos; details: 100 nM, 24 hours, Western blot
T5 sequence (Q06187 whole entry): as the sequence (Q06187 whole entry) above
Procedure: Ramos cells were incubated overnight, and then the indicated compounds were added and incubated for 24 hours, followed by Western blotting for BTK degradation.
Ramos cells were incubated overnight, and then the indicated compounds were added and incubated for 24 hours, followed by Western blotting for BTK degradation (FIG. 7).

IKZF1 [4] = molecular target: T3, IKZF1; test: TMT-based quantitative proteomics in Mino cells, IKZF1; assay type: cell-based; details: 200 nM, 4 h
Procedure: as §1, §2, §3

BTK [5] = molecular target: T5, BTK; test: TMT-based quantitative proteomics in Mino cells, BTK; assay type: cell-based; parameters: host or cells: Mino; details: 200 nM, 4 h
Procedure: as §1, §2, §3

BTK [6] = molecular target: T5, BTK; test: Western blotting for BTK in Ramos cells; assay type: cell-based; parameters: host or cells: Ramos; details: Ramos cells, 40, 200 and 1000 nM, 24 h, Western blot
Procedure: as §4, §5

CSK = molecular target: T6, CSK (Homo sapiens, UniProt P41240); test: TMT-based quantitative proteomics in Mino cells, CSK; assay type: cell-based; details: 200 nM, 4 h
T6 construct: host or cells: Mino
T6 sequence (P41240 whole entry): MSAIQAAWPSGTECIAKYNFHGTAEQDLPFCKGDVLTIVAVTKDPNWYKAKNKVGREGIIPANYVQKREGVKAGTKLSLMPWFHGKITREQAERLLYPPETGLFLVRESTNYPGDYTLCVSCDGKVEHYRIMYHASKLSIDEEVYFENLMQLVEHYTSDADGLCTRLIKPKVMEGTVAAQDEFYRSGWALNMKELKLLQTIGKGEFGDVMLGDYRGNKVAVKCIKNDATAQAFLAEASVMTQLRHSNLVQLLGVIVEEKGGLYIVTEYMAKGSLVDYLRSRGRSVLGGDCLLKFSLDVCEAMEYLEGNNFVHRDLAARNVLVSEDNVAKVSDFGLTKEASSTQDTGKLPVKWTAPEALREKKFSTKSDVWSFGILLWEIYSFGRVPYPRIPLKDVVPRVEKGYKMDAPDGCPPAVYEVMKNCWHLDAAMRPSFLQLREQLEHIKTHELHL
Procedure: as §1, §2, §3

T1 sequence (Q9UKT9 whole entry): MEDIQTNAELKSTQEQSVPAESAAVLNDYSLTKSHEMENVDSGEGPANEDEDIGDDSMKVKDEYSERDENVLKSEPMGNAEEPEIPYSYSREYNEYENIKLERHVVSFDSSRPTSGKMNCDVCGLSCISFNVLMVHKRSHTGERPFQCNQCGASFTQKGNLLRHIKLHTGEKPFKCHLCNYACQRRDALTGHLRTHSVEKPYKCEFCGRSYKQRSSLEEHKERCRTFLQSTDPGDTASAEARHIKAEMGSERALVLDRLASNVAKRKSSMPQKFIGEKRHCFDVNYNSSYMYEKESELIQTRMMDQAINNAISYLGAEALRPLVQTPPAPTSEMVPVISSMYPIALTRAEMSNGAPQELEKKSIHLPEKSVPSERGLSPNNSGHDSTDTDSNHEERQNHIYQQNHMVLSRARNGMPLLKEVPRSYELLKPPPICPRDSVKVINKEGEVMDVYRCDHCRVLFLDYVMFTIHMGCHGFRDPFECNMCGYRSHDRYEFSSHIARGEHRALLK
T1 sequence (Q96SW2 whole entry): as the sequence (Q96SW2 whole entry) above
T1 sequence (Q16531 whole entry partner): as the sequence (Q16531 whole entry partner) above

`O=C1CCC(N2C(=O)c3cccc(NCC(=O)N4CCN(c5ccc(Nc6nccc(Oc7ccccc7)n6)cc5)CC4)c3C2=O)C(=O)N1` (stereo not drawn) [PS-2, 2-(2,6-Dioxopiperidin-3-yl)-4-((2-oxo-2-(4-(4-((4-phenoxypyrimidin-2-yl)amino)phenyl)piperazin-1-yl)ethyl)amino)isoindoline-1,3-dione] was tested, and the “degradation of IKZF3” value (IKZF3) was greater than 60%, the “binding to BTK (result in words)” value (His-BTK) was “almost no binding to BTK” and the DC50 (IKZF1 [1]) was 28 nM. The “BTK degradation (result in words)” value (BTK [2]) was “potent BTK degradation”, the “BTK degradation at 100 nM” value (BTK [3]) was “Most BTK protein was degraded” and the “degradation of IKZF1” value (IKZF1 [4]) was roughly 50%. The “BTK protein level change” value (BTK [5]) was “downregulated”, the “BTK degradation (result in words)” value (BTK [6]) was “potent BTK degradation” and the “CSK protein level change” value (CSK) was “downregulated”.
